A short description of series [1]: Chromatographic purity and impurities of sevoflurane after stress with alumina (Pharmacopeial Forum USP specifications). As to conditions: for degradation of sevoflurane by alumina: Example 5, 260 ppm stabilizer. Format: physicochemical. The procedure:
(§1) In this study alumina was employed in a final concentration of 1 mg per mL of sevoflurane.
(§2) Alumina was employed in a final concentration of 1 mg per mL of sevoflurane.

The nature of series [2]: Limit of fluoride in sevoflurane after stress with alumina. Format: physicochemical. On the procedure: as §1
Another important factor observed in the present study is the quantity of fluoride in the sample submitted to stress.
as §2

A short description of series [3]: Stress degradation of sevoflurane with or without alumina, gas chromatography with toluene internal standard. Format: physicochemical. On the procedure:
In the following examples, all analyses by gas chromatography were carried out by adding 2 μL of toluene (internal standard) in 10 mL of sample of sevoflurane in study. The analysis was done in duplicates and for each chromatogram obtained was calculated the ratio of the area of each impurity/area of toluene.
In two type III glass bottle with capacity of 100 mL, was added 20 mL of anhydrous sevoflurane and in one of the bottles was added 20 mg of alumina totalizing 1.0 mg of Al2O3 per mL of sevoflurane. Both bottles were closed with a stopper and screw metallic cap and heated in a stove at 60° C. for 22 hours. After that period, the samples were analyzed in duplicates by gas chromatography using the internal standard addition method (toluene). […] The degradation products of sevoflurane monitored by gas chromatography, HFIP, Acetal, 2, 5, 7 and 8, are present in high amounts in the samples of sevoflurane containing alumina after heating, as presented in FIG. 4.
The samples were prepared and placed in type III glass bottle and the bottles were closed with stopper and screw metallic cap.
The samples were submitted to two stress conditions by heating in stove at 60° C. for a cycle of 22 hours and other of 72 hours.
The sample was prepared to contain 0, 50, 200, 600, 1000 and 1400 ppm of the stabilizer agent. […] The study comprises put sevoflurane in contact with an acid substance, submits the samples to a stress by heating at 60° C. for 22 hours and, by comparison evaluates the chromatographic purity of sevoflurane after stress. The activated alumina was employed as acid substance in a constant quantity of 1 mg per mL of sevoflurane.
In type III glass bottle with capacity for 100 mL was transferred 20 mL of test sevoflurane containing determined quantities of the stabilizer agent (0, 50, 200, 600, 1000 and 1400 ppm) and 20 mg of alumina. The bottles were immediately closed with a stopper and a screw metallic cap. These bottles were heated in a stove at 60° C. for 22 hours. After the stress the samples were analyzed in duplicate by gas chromatography using the internal standard addition method (toluene). In parallel, studies were done with the quantity determined of the stabilizer (0, 50, 200, 600, 1000 and 1400 ppm) without alumina.
Table 2 resumes the tests realized with the agents propylene glycol and menthol proposed for the stabilization of sevoflurane against the degradation by alumina and the results for total impurity and for the single impurity HFIP obtained with and without alumina after stress at 60° C. for 22 hours. The total impurity is the sum of the ratio between the area for each impurity and the area of the internal standard (toluene) and HFIP is the ratio between the area of HFIP and the area of toluene obtained in the chromatograms.

Series [4] is described as follows: Saturation level / solubility of stabilizer in sevoflurane. The text has this: The stabilizer agent for the fluoroether compound, and most particularly for the sevoflurane, is employed in concentration ranging from 0.001% in weight in relation to the weight of sevoflurane until its level of saturation in the sevoflurane, that is, the maximum concentration in which it keeps soluble in the sevoflurane. The amount of stabilizer agent to achieve its saturation depends on the stabilizer and temperature, and can be high due to the solubility profile among these substances.
Among the appropriate polyalcohols to the stabilization of the fluoroether compound sevoflurane, propylene glycol, polyethylene glycol, hexylene glycol and 1,3-butileneglycol are chosen. […] As cited before, the amount of the stabilizer agent will range from 0.001% in weight until its saturation level in sevoflurane. […] Therefore, in a general way, the polyalcohols are preferably employed in amounts ranging from 0.001% to 5.0% in weight in relation to the weight of sevoflurane.

The mark [5] stands for this setting: Table 4, initial analysis of anhydrous sevoflurane before stress.
Where [6] appears, read: Table 6, initial analysis of anhydrous sevoflurane before stress.
[7] abbreviates: anhydrous sevoflurane, stabilizer 0 ppm, 60° C. for 22 hours, 0 mg of Al2O3.
Setting [8] is: anhydrous sevoflurane, stabilizer 0 ppm, 60° C. for 22 hours, 20 mg of Al2O3.
Setting [9] is: anhydrous sevoflurane, stabilizer 50 ppm, 60° C. for 22 hours, 0 mg of Al2O3.
Setting [10] is: anhydrous sevoflurane, stabilizer 50 ppm, 60° C. for 22 hours, 20 mg of Al2O3.
[11] abbreviates: anhydrous sevoflurane, stabilizer 200 ppm, 60° C. for 22 hours, 0 mg of Al2O3.
Where [12] appears, read: anhydrous sevoflurane, stabilizer 200 ppm, 60° C. for 22 hours, 20 mg of Al2O3.
Setting [13] is: anhydrous sevoflurane, stabilizer 600 ppm, 60° C. for 22 hours, 0 mg of Al2O3.
The mark [14] stands for this setting: anhydrous sevoflurane, stabilizer 600 ppm, 60° C. for 22 hours, 20 mg of Al2O3.
[15] abbreviates: anhydrous sevoflurane, stabilizer 1000 ppm, 60° C. for 22 hours, 0 mg of Al2O3.
The mark [16] stands for this setting: anhydrous sevoflurane, stabilizer 1000 ppm, 60° C. for 22 hours, 20 mg of Al2O3.
[17] abbreviates: anhydrous sevoflurane, stabilizer 1400 ppm, 60° C. for 22 hours, 0 mg of Al2O3.
[18] abbreviates: anhydrous sevoflurane, stabilizer 1400 ppm, 60° C. for 22 hours, 20 mg of Al2O3.
[19] abbreviates: sevoflurane, stabilizer 50 ppm, stress at 60° C. for 12 hours, 0 mg of Al2O3.
Setting [20] is: sevoflurane, stabilizer 50 ppm, stress at 60° C. for 12 hours, 20 mg of Al2O3.
[21] abbreviates: alumina 1 mg per mL, 60° C. for 22 hours.
Where [22] appears, read: Table 4, sevoflurane with 260 ppm stabilizer, alumina 1 mg per mL, 60° C. for 22 hours.
The mark [23] stands for this setting: Table 5, sevoflurane with 260 ppm stabilizer, alumina 1 mg per mL, 60° C. for 22 hours.
Setting [24] is: Table 6, sevoflurane with water 260 ppm or PG + water 260:260 ppm, alumina 1 mg per mL, 60° C. for 22 hours.

As to `FCOC(C(F)(F)F)C(F)(F)F` [Anhydrous Sevoflurane, fluoromethyl 2,2,2-trifluoro-1-(trifluoromethyl)ethyl ether], in series [1] (setting [5]), the “Compound A” value stood at 11.2 µg/g, the Purity was 99.9798%, the Single impurity is 63.7 µg/g and the “Total Impurity” value is 201.8 µg/g. In series [1] (setting [6]), this compound displayed a Purity of 99.9907%, a Single impurity of 42.1 µg/g and a Total impurities of 93.0 µg/g. The same compound showed a Limit of fluoride in series [2] (Table 5, initial analysis of anhydrous sevoflurane before stress) of 0.050 µg/mL. Besides, the “Limit of fluoride” value in series [2] (setting [6]) was determined as 0.072 µg/mL.

For `CC1CCC(C(C)C)C(O)C1` (stereo not drawn) [MENTHOL, (1 alpha, 2 beta, 5 alpha)-5-methyl-2-(1-methylethyl)cyclohexanol], the “HFIP (average ratio area of HFIP/area of toluene)” value in series [3] (setting [7]) turned out to be 0.0408; in series [3] (setting [8]) it was 0.8914; in series [3] (setting [9]), 0.04541; in series [3] (setting [10]), 0.6402; in series [3] (setting [11]) it was 0.04228; in series [3] (setting [12]), 0.5880. The “HFIP (average ratio area of HFIP/area of toluene)” value is 0.04445 in series [3] (setting [13]); 0.4426 in series [3] (setting [14]); 0.04669 in series [3] (setting [15]); 0.3787 in series [3] (setting [16]); 0.04325 in series [3] (setting [17]); 0.3329 in series [3] (setting [18]). Further, the “Total Impurity (average sum of ratios area of each impurity/area of toluene)” value in series [3] (setting [7]) came out at 0.3083; in series [3] (setting [8]), 37.5478; in series [3] (setting [9]) it was 0.3174; in series [3] (setting [10]), 1.0412; in series [3] (setting [11]), 0.2918; in series [3] (setting [12]), 1.0773. In addition, the “Total Impurity (average sum of ratios area of each impurity/area of toluene)” value in series [3] (setting [13]) amounted to 0.3319; in series [3] (setting [14]) it was 1.0001; in series [3] (setting [15]), 0.3627; in series [3] (setting [16]) it was 0.9486; in series [3] (setting [17]), 0.3644; in series [3] (setting [18]) it was 1.0156. The “saturation level in sevoflurane” value in series [4] is reported as “about 6.8%”.

With `CC(O)CO` (centres unmarked) [Propylene glycol, 1,2-propanediol], the “HFIP (average ratio area of HFIP/area of toluene)” value in series [3] (setting [7]) is 0.0491; in series [3] (setting [8]), 0.6680; in series [3] (setting [9]) it was 0; in series [3] (setting [10]), 0.05996; in series [3] (setting [11]), 0.04474; in series [3] (setting [12]), 0.04072. Further, the “HFIP (average ratio area of HFIP/area of toluene)” value is listed as 0.04694 in series [3] (setting [13]); 0.04603 in series [3] (setting [14]); 0.04038 in series [3] (setting [15]); 0.04353 in series [3] (setting [16]); 0.04159 in series [3] (setting [17]); 0.04236 in series [3] (setting [18]). Also, the entries for the “HFIP (average ratio area of HFIP/area of toluene)” value in series [3] (setting [19]) and in series [3] (setting [20]) were 0.00338 and 0.02051, respectively. In addition, the “Total Impurity (average sum of ratios area of each impurity/area of toluene)” value in series [3] (setting [7]) is 0.3304; in series [3] (setting [8]) it was 31.65; in series [3] (setting [9]), 0.3293; in series [3] (setting [10]), 0.3925; in series [3] (setting [11]), 0.3546; in series [3] (setting [12]), 0.2823. The “Total Impurity (average sum of ratios area of each impurity/area of toluene)” value in series [3] (setting [13]) was found to be 0.2925; in series [3] (setting [14]), 0.3158; in series [3] (setting [15]), 0.3800; in series [3] (setting [16]), 0.3189; in series [3] (setting [17]) it was 0.3061; in series [3] (setting [18]), 0.3235. The “Total Impurity (average sum of ratios area of each impurity/area of toluene)” value stood at 0.3236 in series [3] (setting [19]) and 0.3963 in series [3] (setting [20]). Also, in series [1] (setting [21]), the “degradation of sevoflurane by alumina” value is listed as “didn't show any degradation”. In addition, in series [1] (setting [22]), the “Compound A” value is 11.3 µg/g. Besides, the Purity in series [1] (setting [22]) amounted to 99.9774%. Moreover, the Single impurity in series [1] (setting [22]) is 61.7 µg/g. For the same compound, the “Total Impurity” value in series [1] (setting [22]) is 226.3 µg/g. In series [2] (setting [23]), the Limit of fluoride worked out at 0.051 µg/mL. In series [4], the “saturation level in sevoflurane” value is “around 2.5%”.

Regarding `O` [Water], the “water content from which degradation of sevoflurane by alumina is inhibited” value in series [3] (Example 2, alumina 1 mg per mL, 60° C.) is not below 600 ppm. Moreover, the “degradation of sevoflurane by alumina” value in series [3] (Example 4, 50 ppm stabilizer, alumina 1 mg per mL) is recorded as “incapable to completely inhibit”. Further, the “increase of impurity HFIP value in relation to the sample without alumina” value in series [3] (sevoflurane containing water, with alumina) is “about 10 times”. Further, in series [1] (setting [21]), the “degradation of sevoflurane by alumina” value was “didn't inhibit the degradation”. In series [1] (setting [22]), the “Compound A” value turned out to be 11.8 µg/g, the Purity worked out at 99.8944%, the Single impurity worked out at 403 µg/g and the “Total Impurity” value amounted to 1056.1 µg/g. Moreover, in series [1] (setting [24]), the Purity turned out to be 99.8899%, the Single impurity amounted to 422.8 µg/g and the Total impurities came out at 1101.3 µg/g. The Limit of fluoride in series [2] (setting [23]) was found to be 16.950 µg/mL. Besides, the “Limit of fluoride” value in series [2] (setting [24]) came out at 15.340 µg/mL.

Turning to PEG 400, in series [4], the “solubility in sevoflurane” value was “freely soluble”.

The values are drawn from patent US7816409B2, “Stable pharmaceutical composition of fluoroether compound for anesthetic use method for stabilizing a fluoroether compound, use of stabilizer agent for precluding the degradation of a fluoroether compound” (Cristalia Productos Quimicos Farmaceuticos LTDA, priority 2003, dated 2010).
